Key:
[1] = biological target: T1, Recombinant ROCK1 (amino acids 1-477) (Homo sapiens, UniProt Q13464); assay: ROCK inhibition assay, LANCE Ultra TR-FRET kinase assay (ROCK1); assay type: biochemical; conditions: 1 μM ATP, 50 nM ULight-CREBtide substrate
T1 construct: Recombinant ROCK1 (amino acids 1-477); by word order, ROCK1 from Carna Biosciences
Method: (§1) Kinase IC50 was determined through an in vitro assay based on LANCE Ultra TR-FRET (Time-Resolved Fluorescence Resonance Energy Transfer) homogeneous technologies method (Perkin Elmer). Recombinant ROCK1 (amino acids 1-477) and ROCK2 (amino acids 5-554) proteins were purchased from Carna Biosciences and SignalChem. Compound activities were measured by Envision and IC50s were calculated. The assays were performed in white LUMITRAC™ 200 96 well half-area microplates from Greiner Bio-One. The kinase reaction buffer consisted of 50 mM HEPES pH 7.5, 1 mM EGTA, 10 mM MgCl2, 2 mM DTT and 0.01% Tween-20. Kinases were incubated with 50 nM (ULight-CREBtide) substrate in the presence of 1 (ROCK1) or 4 (ROCK2) μM ATP. The kinase reaction was carried out for 1 hour before addition of a stopping buffer to a final of 10 mM EDTA and 0.6 nM of LANCE Ultra Europium anti-phospho-CREB (Ser133) antibody (PerkinElmer TRF0200) in LANCE detection buffer. All assay incubations were performed at room temperature, and the microplates were sealed with polyester film during that time. The reaction was incubated for 1 hour, and the signal was read in Envision in TR-FRET mode (excitation at 320 nm and emission at 615/665 nm).
(§2) As used herein, a way to describe potency of inhibitory activity (nM) is a value of inhibitory activity at 50% (IC50).

[2] = biological target: T2, Recombinant ROCK2 (amino acids 5-554) (Homo sapiens, UniProt O75116); assay: ROCK inhibition assay, LANCE Ultra TR-FRET kinase assay (ROCK2); assay type: biochemical; conditions: 4 μM ATP, 50 nM ULight-CREBtide substrate
T2 construct: ROCK2 (amino acids 5-554); by word order, ROCK2 from SignalChem
T2 sequence (O75116 5-554): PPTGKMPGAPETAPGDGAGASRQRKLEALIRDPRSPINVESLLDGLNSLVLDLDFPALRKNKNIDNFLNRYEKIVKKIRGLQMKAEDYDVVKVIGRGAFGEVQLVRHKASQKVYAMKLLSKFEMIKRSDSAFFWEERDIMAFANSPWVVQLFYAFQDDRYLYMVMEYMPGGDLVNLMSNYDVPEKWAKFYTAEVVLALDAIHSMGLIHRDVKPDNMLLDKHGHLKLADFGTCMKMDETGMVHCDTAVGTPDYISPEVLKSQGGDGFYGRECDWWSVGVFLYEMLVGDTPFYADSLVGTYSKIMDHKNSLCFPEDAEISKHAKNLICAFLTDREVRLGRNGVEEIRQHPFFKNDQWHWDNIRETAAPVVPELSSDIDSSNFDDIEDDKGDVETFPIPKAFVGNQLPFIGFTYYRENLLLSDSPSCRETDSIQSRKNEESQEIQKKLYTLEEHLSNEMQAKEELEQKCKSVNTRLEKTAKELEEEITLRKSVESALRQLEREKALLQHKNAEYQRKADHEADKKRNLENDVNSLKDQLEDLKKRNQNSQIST
Method: as §1, §2

T1 sequence (Q13464 1-477): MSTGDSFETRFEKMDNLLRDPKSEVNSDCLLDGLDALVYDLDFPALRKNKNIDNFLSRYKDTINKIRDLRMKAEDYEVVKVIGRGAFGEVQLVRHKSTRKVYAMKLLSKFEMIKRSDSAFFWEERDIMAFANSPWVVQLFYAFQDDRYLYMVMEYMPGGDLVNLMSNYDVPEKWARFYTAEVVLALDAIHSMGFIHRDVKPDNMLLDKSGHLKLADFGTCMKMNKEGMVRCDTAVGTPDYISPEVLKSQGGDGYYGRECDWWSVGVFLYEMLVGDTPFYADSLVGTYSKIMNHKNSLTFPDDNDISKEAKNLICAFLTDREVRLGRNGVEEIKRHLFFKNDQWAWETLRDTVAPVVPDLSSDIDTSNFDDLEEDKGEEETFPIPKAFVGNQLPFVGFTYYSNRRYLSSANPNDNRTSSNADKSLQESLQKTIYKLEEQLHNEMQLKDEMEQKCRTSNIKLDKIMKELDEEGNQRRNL

Compound | IC50 [1] | IC50 [2]
O=C(NCCc1ccccn1)c1cccc(Cn2ccc3cc(-c4cn[nH]c4)ccc3c2=O)c1 [Compound 27, 3-((1-oxo-6-(1H-pyrazol-4-yl)isoquinolin-2(1H)-yl)methyl)-N-(2-(pyridin-2-yl)ethyl)benzamide] | 11 to 100 nM | < 10 nM
CNC(=O)c1cccc(Cn2cc(CCO)c3cc(-c4cn[nH]c4C(F)(F)F)ccc3c2=O)c1 [Compound 546, 3-((4-(2-hydroxyethyl)-1-oxo-6-(5-(trifluoromethyl)-1H-pyrazol-4-yl)isoquinolin-2(1H)-yl)methyl)-N-methylbenzamide] | 11 to 100 nM | < 10 nM
Nc1cc(-c2ccc3c(=O)n(Cc4cccc(C(=O)N[C@H]5CC[C@H](O)CC5)c4)ccc3c2)ccn1 [Compound 193] | 101 to 500 nM | 10 to 100 nM
CC(C)NC(=O)c1cccc(Cn2cnc3cc(-c4cn[nH]c4C(F)(F)F)ccc3c2=O)c1 [Compound 369] | 11 to 100 nM | < 10 nM
CNC(=O)c1cccc(Cn2cc(C(C)O)c3cc(-c4conc4C)ccc3c2=O)c1 (stereo not drawn) [Compound 537] | 11 to 100 nM | < 10 nM
C[C@H](c1cccc(C(=O)NCC2CCOCC2)c1)n1cnc2cc(-c3cn[nH]c3C(F)(F)F)ccc2c1=O [Compound 451] | 11 to 100 nM | < 10 nM
O=C(NC1CCN(C2COC2)CC1)c1cccc(Cn2cnc3cc(-c4cn[nH]c4C(F)(F)F)ccc3c2=O)c1 [Compound 377] | 11 to 100 nM | < 10 nM
Cc1nocc1-c1ccc2c(=O)n(Cc3cccc(C(=O)Nc4ccc5c(c4)CN(C)CC5)c3)ccc2c1 [Compound 101] | < 10 nM | < 10 nM
[2H]C([2H])([2H])NC(=O)c1cccc([C@@H](C)n2cnc3cc(-c4cn[nH]c4C(F)F)ccc3c2=O)c1 [Compound 458] | 11 to 100 nM | < 10 nM
Cn1nccc1-c1ccc2c(=O)n(Cc3cccc(C(=O)Nc4ccc5c(c4)CNCC5)c3)ccc2c1 [Compound 125] | < 10 nM | < 10 nM
Cc1nocc1-c1ccc2c(=O)n(Cc3cccc(C(=O)Nc4ccn(C)n4)c3)ccc2c1 [Compound 89] | > 501 nM | 100 to 500 nM
CC(C)NC(=O)c1cccc(Cn2ccc3cc(-c4cn[nH]c4)ccc3c2=O)c1 [Compound 28] | 101 to 500 nM | 10 to 100 nM
O=C(NC1CCNCC1)c1cccc(Cn2ccc3cc(-c4c[nH]nc4C(F)(F)F)ccc3c2=O)c1 [Compound 46] | < 10 nM | < 10 nM
Cc1nocc1-c1ccc2c(=O)n(Cc3cccc(C(=O)NCC4CCN(C(C)C)CC4)c3)ccc2c1 [Compound 81] | 101 to 500 nM | 10 to 100 nM
CN1CCC(NC(=O)c2cccc(Cn3cnc4cc(-c5ccnc(N)c5)ccc4c3=O)c2)CC1 [Compound 436] | 11 to 100 nM | < 10 nM
Cn1ccc(NC(=O)c2cc(F)cc(Cn3ccc4cc(-c5ccnn5C)ccc4c3=O)c2)n1 [Compound 179] | 11 to 100 nM | < 10 nM
CO[C@H]1CC[C@@H](NC(=O)c2cc(F)cc(Cn3ccc4cc(-c5conc5C)ccc4c3=O)c2)CC1 [Compound 142] | > 501 nM | 100 to 500 nM
O=C(NC1CCOCC1)c1cccc(Cn2ccc3cc(-c4c[nH]nc4C(F)(F)F)ccc3c2=O)c1 [Compound 45] | 101 to 500 nM | 10 to 100 nM
Cc1nocc1-c1ccc2c(=O)n(Cc3cccc(NC(=O)C4COC4)c3)ccc2c1 [Compound 348] | 11 to 100 nM | 10 to 100 nM
CNC(=O)c1cccc(C(C)n2cnc3cc(-c4cn[nH]c4Cl)ccc3c2=O)c1 (stereo not drawn) [Compound 406] | 11 to 100 nM | < 10 nM
Cc1nocc1-c1ccc2c(=O)n(Cc3cccc(C(=O)Nc4ccc5c(c4)CCN(C(C)C)C5)c3)ccc2c1 [Compound 98] | < 10 nM | < 10 nM
CN1CCc2sc(NC(=O)c3cccc(Cn4ccc5cc(-c6ccnn6C)ccc5c4=O)c3)nc2C1 [Compound 121] | 11 to 100 nM | < 10 nM
COc1cccc(C(C)n2ccc3cc(-c4c[nH]nc4Cl)ccc3c2=O)c1 (stereo not drawn) [Compound 19] | < 10 nM | < 10 nM
C[C@H](c1cccc(C(=O)NC2CCOCC2)c1)n1cnc2cc(-c3cn[nH]c3C(F)(F)F)ccc2c1=O [Compound 449] | 11 to 100 nM | < 10 nM
Cc1nocc1-c1ccc2c(=O)n(Cc3cccc(C(=O)NCC(F)(F)F)c3)ccc2c1 [Compound 67] | 11 to 100 nM | 10 to 100 nM
O=C(N[C@H]1CC[C@H](O)CC1)c1cc(F)cc(Cn2ccc3cc(-c4c[nH]nc4Cl)ncc3c2=O)c1 [Compound 263] | 11 to 100 nM | < 10 nM

Compound | IC50 [1] | IC50 [2]
CNC(=O)c1cccc(Cn2cc(C(C)O)c3cc(-c4c[nH]nc4Cl)ccc3c2=O)c1 (stereo not drawn) [Compound 541] | 11 to 100 nM | < 10 nM
Cn1nccc1-c1ccc2c(=O)n(Cc3cccc(C(=O)NC4CCN(C5COC5)CC4)c3)ccc2c1 [Compound 109] | 101 to 500 nM | 10 to 100 nM
CNC(=O)c1cc(F)cc(Cn2ccc3cc(-c4ccnc(N)c4)ncc3c2=O)c1 [Compound 251] | 101 to 500 nM | 10 to 100 nM
CNC(=O)c1cccc(Cn2ccc3cc(-c4conc4C)ccc3c2=O)n1 [Compound 311] | > 501 nM | 100 to 500 nM
COc1cccc([C@@H](CO)N2CNc3cc(-c4cn[nH]c4Cl)ccc3C2=O)c1 [Compound 530] | > 501 nM | 10 to 100 nM
CNC(=O)c1cccc([C@H](C)n2cnc3cc(-c4cn[nH]c4C(F)(F)F)ccc3c2=O)c1 [Compound 444] | 11 to 100 nM | < 10 nM
Cc1nocc1-c1ccc2c(=O)n(Cc3cccc(C(=O)Nc4ccc5c(c4)CCN(C4CC4)C5)c3)ccc2c1 [Compound 99] | < 10 nM | < 10 nM
Cc1nocc1-c1ccc2c(=O)n(Cc3cc(F)cc(C(=O)NCC4COC4)c3)ccc2c1 [Compound 145] | 101 to 500 nM | 10 to 100 nM
Cc1nocc1-c1ccc2c(=O)n(Cc3cccc(C(=O)NCc4ccccc4)c3)cc(C(C)O)c2c1 (stereo not drawn) [Compound 539] | 11 to 100 nM | < 10 nM
CNC(=O)c1cccc(Cn2ccc3cc(N4CCOCC4)ccc3c2=O)c1 [Compound 328, N-methyl-3-((6-morpholino-1-oxoisoquinolin-2(1H)-yl)methyl)benzamide] | 101 to 500 nM | 10 to 100 nM
Cn1nccc1-c1ccc2c(=O)n(Cc3cccc(C(=O)NC4COC4)c3)ccc2c1 [Compound 110] | 101 to 500 nM | < 10 nM
[2H]C([2H])([2H])NC(=O)c1cccc(C(C)n2ccc3cc(-c4cn[nH]c4C(F)F)ccc3c2=O)c1 (stereo not drawn) [Compound 288] | 11 to 100 nM | < 10 nM
CNC(=O)c1cc(Cn2cnc3cc(-c4cn[nH]c4C(F)(F)F)ccc3c2=O)ccc1F [Compound 389] | 11 to 100 nM | 10 to 100 nM
CNC(=O)c1cccc(Cn2cnc3cc(-c4cn[nH]c4)ccc3c2=O)c1 [Compound 366, N-methyl-3-((4-oxo-7-(1H-pyrazol-4-yl)quinazolin-3(4H)-yl)methyl)benzamide] | 11 to 100 nM | < 10 nM
Cc1nocc1-c1ccc2c(=O)n([C@H](C)c3cccc(C(=O)NCCN4CCOCC4)c3)cnc2c1 [Compound 474] | 11 to 100 nM | < 10 nM
O=C(NCC1CCNCC1)c1cc(F)cc(Cn2ccc3cc(-c4c[nH]nc4C(F)F)ccc3c2=O)c1 [Compound 61] | < 10 nM | < 10 nM
NS(=O)(=O)c1ccc(NC(=O)c2cc(F)cc(Cn3ccc4cc(-c5c[nH]nc5C(F)(F)F)ccc4c3=O)c2)cc1 [Compound 127] | 101 to 500 nM | 10 to 100 nM
N#Cc1cccc(C(CN)n2cnc3cc(-c4cn[nH]c4C(F)(F)F)ccc3c2=O)c1 (stereo not drawn) [Compound 503] | > 501 nM | 100 to 500 nM
O=c1c2ccc(-c3cn[nH]c3)cc2ccn1Cc1cccc(O)c1 [Compound 3, 2-(3-hydroxybenzyl)-6-(1H-pyrazol-4-yl)isoquinolin-1(2H)-one] | 101 to 500 nM | 10 to 100 nM
Cc1nocc1-c1ccc2c(=O)n(Cc3cccc(C(=O)NCCN4CCN(C)CC4)c3)ccc2c1 [Compound 70] | < 10 nM | < 10 nM
O=C(N[C@H]1CC[C@@H](O)CC1)c1cccc(Cn2cnc3cc(-c4cn[nH]c4C(F)(F)F)ccc3c2=O)c1 [Compound 382] | 11 to 100 nM | < 10 nM
O=C(N[C@H]1CC[C@@H](O)CC1)c1cc(F)cc(Cn2ccc3cc(-c4c[nH]nc4Cl)ccc3c2=O)c1 [Compound 66] | 11 to 100 nM | < 10 nM
CN1CCC(CNC(=O)c2cccc(Cn3ccc4cc(-c5c[nH]nc5Cl)ccc4c3=O)c2)CC1 [Compound 64] | < 10 nM | < 10 nM
CNC(=O)c1cccc([C@@H](C)n2cnc3cc(-c4cn[nH]c4OC)ncc3c2=O)c1 [Compound 571] | 11 to 100 nM | < 10 nM
O=C(NCC1CCNCC1)c1cccc(Cn2cnc3cc(-c4cn[nH]c4C(F)(F)F)ccc3c2=O)c1 [Compound 381] | < 10 nM | < 10 nM

Source: US12064426B2, “Selective inhibitors of ROCK1 and ROCK2 protein kinases and uses thereof” (GENOSCO Inc., priority 2021, dated 2024)
